# According to US20120220564A1, “SELECTIVE CALCIUM CHANNEL MODULATORS” (Zalicus Pharmaceuticals Ltd., priority 2009, published 2012):
# pIC50: −log10 of the molar value.
# Key:
# [1] = system: Rat SNL tactile allodynia; assay: L5/L6 spinal nerve ligation (SNL) Chung pain model, tactile allodynia (von Frey); type: in vivo; conditions: for % Antiallodynia (Mean ± SD): 100 mg/kg PO, n = 7-8
# Text: The Spinal Nerve Ligation is an animal model representing peripheral nerve injury generating a neuropathic pain syndrome. In this model experimental animals develop the clinical symptoms of tactile allodynia and hyperalgesia. L5/L6 Spinal nerve ligation (SNL) injury was induced using the procedure of Kim and Chung (Kim et al., Pain 50:355-363 (1992)) in male Sprague-Dawley rats (Harlan; Indianapolis, Ind.) weighing 200 to 250 grams.
# Anaesthesia was induced with 2% isofluorane in O2 at 2 L/min and maintained with 0.5% isofluorane in O2. Rats were then shaved and aseptically prepared for surgeries. A 2 cm paraspinal incision was made at the level of L4-S2. L4/L5 was exposed by removing the transverse process above the nerves with a small rongeur. The L5 spinal nerve is the larger of the two visible nerves below the transverse process and lies closest to the spine. The L6 spinal nerve is located beneath the corner of the slope bone. A home-made glass Chung rod was used to hook L5 or L6 and a pre-made slip knot of 4.0 silk suture was placed on the tip of the rod just above the nerve and pulled underneath to allow for the tight ligation. The L5 and L6 spinal nerves were tightly ligated distal to the dorsal root ganglion. The incision was closed, and the animals were allowed to recover for 5 days.
# Sham control rats underwent the same operation and handling as the experimental animals, but without SNL.
# Prior to initiating drug delivery, baseline behavioural testing data is obtained. At selected times after infusion of the Test or Control Article behavioural data can then be collected again.
# The assessment of tactile allodynia consisted of measuring the withdrawal threshold of the paw ipsilateral to the site of nerve injury in response to probing with a series of calibrated von Frey filaments (innocuous stimuli). Animals were acclimated to the suspended wire-mesh cages for 30 min before testing. Each von Frey filament was applied perpendicularly to the plantar surface of the ligated paw of rats for 5 sec. A positive response was indicated by a sharp withdrawal of the paw. For rats, the first testing filament is 4.31. Measurements were taken before and after administration of test articles. […] The protocol was repeated until three changes in behaviour were determined (“up and down” method) (Chaplan et al., J. Neurosci. Methods 53:55-63 (1994)). The 50% paw withdrawal threshold was determined as (10^[Xf+kδ])/10,000, where Xf=the value of the last von Frey filament employed, k=Dixon value for the positive/negative pattern, and δ=the logarithmic difference between stimuli. The cut-off values for rats were no less than 0.2 g and no higher than 15 g (5.18 filament); for mice no less than 0.03 g and no higher than 2.34 g (4.56 filament). A significant drop of the paw withdrawal threshold compared to the pre-treatment baseline is considered tactile allodynia.
# [2] = system: 6 Hz psychomotor seizure; assay: 6 Hz psychomotor seizure model of partial epilepsy; type: in vivo, mice; parameters: concentration or dose not given beside the values
# Text: Compounds can also be evaluated for the protection against seizures induced by a 6 Hz, 0.2 ms rectangular pulse width of 3 s duration, at a stimulus intensity of 32 mA (CC97) applied to the cornea of male CF1 mice (20-30 g) according to procedures described by Barton et al, “Pharmacological Characterization of the 6 Hz Psychomotor Seizure Model of Partial Epilepsy,” Epilepsy Res. 47(3):217-27 (2001). Seizures are characterised by the expression of one or more of the following behaviours: stun, forelimb clonus, twitching of the vibrissae and Straub-tail immediately following electrical stimulation.
# [3] = target: T1, α1H (CaV 3.2) (Homo sapiens, UniProt O95180); assay: T-type calcium channel block, whole cell patch clamp; type: cell-based; conditions: HEK cells, mainly non-inactivated protocol; values above 10,000 nM represented as 10000
# T1 construct: expressed in transfected cells; host or cells: HEK 293
# Description: (§1) T-type calcium channel blocking activity was assayed in human embryonic kidney cells, HEK 293 (Invitrogen), stably transfected with the T-type calcium channel subunits. Briefly, cells were cultured in Dulbecco's modified eagle medium (DMEM) supplemented with 10% fetal bovine serum, 200 U/ml penicillin, and 0.2 mg/mL streptomycin at 37° C. with 5% CO2. At 85% confluency, cells were split with 0.25% trypsin/1 mM EDTA and plated at 10% confluency on glass coverslips. At 12 hours, the medium was replaced, and the cells stably transfected using a standard calcium phosphate protocol and the appropriate calcium channel cDNA's. Fresh DMEM was supplied, and the cells transferred to 28° C./5% CO2. Cells were incubated for 1 to 2 days prior to whole cell recording.
# (§2) Standard patch-clamp techniques were employed to identify blockers of T-type currents. Briefly, previously described HEK cell lines stably expressing human α1G, α1H and α1I T-type channels were used for all the recordings (passage #: 4-20, 37° C., 5% CO2). Whole cell patch clamp experiments were performed using an Axopatch 200B amplifier (Axon Instruments, Burlingame, Calif.) linked to a personal computer equipped with pCLAMP software. Data were analyzed using Clampfit (Axon Instruments) and SigmaPlot 4.0 (Jandel Scientific). To obtain T-type currents, plastic dishes containing semi-confluent cells were positioned on the stage of a ZEISS AXIOVERT S100 microscope after replacing the culture medium with external solution (Table 2). Whole-cell patches were obtained using pipettes (borosilicate glass with filament, O.D.: 1.5 mm, I.D.: 0.86 mm, 10 cm length), fabricated on a SUTTER P-97 puller with resistance values of ˜5 MΩ (Table 3).
# (§3) T-type currents were reliably obtained by using two voltage protocols:
# (§4) In the non-inactivating protocol, the holding potential is set at −110 mV and with a pre-pulse at −100 mV for 1 second prior to the test pulse at −40 mV for 50 ms. In the inactivation protocol, the pre-pulse is at approximately −85 mV for 1 second, which inactivates about 15% of the T-type channels (Scheme 1).
# (§5) Test compounds were dissolved in external solution, 0.1-0.01% DMSO. After ˜10 minutes rest, they were applied by gravity close to the cell using a WPI microfil tubing. The “non-inactivated” pre-pulse was used to examine the resting block of a compound. The “inactivated” protocol was employed to study voltage-dependent block. However, the initial data shown below were mainly obtained using the non-inactivated protocol only. IC50 values are shown for various compounds of the invention in Table 4. […] In Table 4, empty cells indicate that inhibition by the compound was not detected.
# [4] = system: minimal muscular or neurological impairment (rotarod); assay: Mouse rotarod assay; type: in vivo, mice
# Description: To assess a compound's undesirable side effects (toxicity), animals can be monitored for overt signs of impaired neurological or muscular function. In mice, the rotarod procedure (Dunham and Miya, J. Am. Pharmacol. Assoc. 46:208-209 (1957)) is used to disclose minimal muscular or neurological impairment (MMI). When a mouse is placed on a rod that rotates at a speed of 6 rpm, the animal can maintain its equilibrium for long periods of time. The animal is considered toxic if it falls off this rotating rod three times during a 1-min period.
# [5] = target: T2, α1G (CaV 3.1) (Homo sapiens, UniProt O43497); assay: T-type calcium channel block, whole cell patch clamp; type: cell-based; conditions: HEK cells, mainly non-inactivated protocol; values above 10,000 nM represented as 10000
# T2 construct: expressed in transfected cells; host or cells: HEK 293
# Description: as §1, §2, §3, §4, §5
# [6] = system: Lamina I/II spinal cord neurons; assay: Lamina assay, current-clamp recordings in spinal cord slices; type: cell-based, rat; conditions: Lamina I and II neurons
# Text: Male Wistar rats (P6 to P9 for voltage-clamp and P15 to P18 for current-clamp recordings) were anaesthetized through intraperitoneal injection of Inactin (Sigma). The spinal cord was then rapidly dissected out and placed in an ice-cold solution protective sucrose solution containing (in mM): 50 sucrose, 92 NaCl, 15 D-Glucose, 26 NaHCO3, 5 KCl, 1.25 NaH2PO4, 0.5 CaCl2, 7 MgSO4, 1 kynurenic acid, and bubbled with 5% CO2/95% O2. The meninges, dura, and dorsal and ventral roots were then removed from the lumbar region of the spinal cord under a dissecting microscope. The “cleaned” lumbar region of the spinal cord was glued to the vibratome stage and immediately immersed in ice cold, bubbled, sucrose solution. For current-clamp recordings, 300 to 350 μm parasagittal slices were cut to preserve the dendritic arbour of lamina I neurons, while 350 to 400 μm transverse slices were prepared for voltage-clamped […] channel recordings. Slices were allowed to recover for 1 hour at 35° C. in Ringer solution containing (in mM): 125 NaCl, 20 D-Glucose, 26 NaHCO3, 3 KCl, 1.25 NaH2PO4, 2 CaCl2, 1 MgCl2, 1 kynurenic acid, 0.1 picrotoxin, bubbled with 5% CO2/95% O2. The slice recovery chamber was then returned to room temperature (20 to 22° C.) and all recordings were performed at this temperature.
# Neurons were visualized using IR-DIC optics (Zeiss Axioskop 2 FS plus, Gottingen, Germany), and neurons from lamina I and the outer layer of lamina II were selected based on their location relative to the substantia gelatinosa layer. Neurons were patch-clamped using borosilicate glass patch pipettes with resistances of […] Current-clamp recordings of lamina I/II neurons in the intact slice, the external recording solution was the above Ringer solution, while the internal patch pipette solution contained (in mM): 140 KGluconate, 4 NaCl, 10 HEPES, 1 EGTA, 0.5 MgCl2, 4 MgATP, 0.5 Na2GTP, adjusted to pH 7.2 with 5 M KOH and to 290 mOsm with D-Mannitol (if necessary). […]
# T2 sequence (O43497 whole entry): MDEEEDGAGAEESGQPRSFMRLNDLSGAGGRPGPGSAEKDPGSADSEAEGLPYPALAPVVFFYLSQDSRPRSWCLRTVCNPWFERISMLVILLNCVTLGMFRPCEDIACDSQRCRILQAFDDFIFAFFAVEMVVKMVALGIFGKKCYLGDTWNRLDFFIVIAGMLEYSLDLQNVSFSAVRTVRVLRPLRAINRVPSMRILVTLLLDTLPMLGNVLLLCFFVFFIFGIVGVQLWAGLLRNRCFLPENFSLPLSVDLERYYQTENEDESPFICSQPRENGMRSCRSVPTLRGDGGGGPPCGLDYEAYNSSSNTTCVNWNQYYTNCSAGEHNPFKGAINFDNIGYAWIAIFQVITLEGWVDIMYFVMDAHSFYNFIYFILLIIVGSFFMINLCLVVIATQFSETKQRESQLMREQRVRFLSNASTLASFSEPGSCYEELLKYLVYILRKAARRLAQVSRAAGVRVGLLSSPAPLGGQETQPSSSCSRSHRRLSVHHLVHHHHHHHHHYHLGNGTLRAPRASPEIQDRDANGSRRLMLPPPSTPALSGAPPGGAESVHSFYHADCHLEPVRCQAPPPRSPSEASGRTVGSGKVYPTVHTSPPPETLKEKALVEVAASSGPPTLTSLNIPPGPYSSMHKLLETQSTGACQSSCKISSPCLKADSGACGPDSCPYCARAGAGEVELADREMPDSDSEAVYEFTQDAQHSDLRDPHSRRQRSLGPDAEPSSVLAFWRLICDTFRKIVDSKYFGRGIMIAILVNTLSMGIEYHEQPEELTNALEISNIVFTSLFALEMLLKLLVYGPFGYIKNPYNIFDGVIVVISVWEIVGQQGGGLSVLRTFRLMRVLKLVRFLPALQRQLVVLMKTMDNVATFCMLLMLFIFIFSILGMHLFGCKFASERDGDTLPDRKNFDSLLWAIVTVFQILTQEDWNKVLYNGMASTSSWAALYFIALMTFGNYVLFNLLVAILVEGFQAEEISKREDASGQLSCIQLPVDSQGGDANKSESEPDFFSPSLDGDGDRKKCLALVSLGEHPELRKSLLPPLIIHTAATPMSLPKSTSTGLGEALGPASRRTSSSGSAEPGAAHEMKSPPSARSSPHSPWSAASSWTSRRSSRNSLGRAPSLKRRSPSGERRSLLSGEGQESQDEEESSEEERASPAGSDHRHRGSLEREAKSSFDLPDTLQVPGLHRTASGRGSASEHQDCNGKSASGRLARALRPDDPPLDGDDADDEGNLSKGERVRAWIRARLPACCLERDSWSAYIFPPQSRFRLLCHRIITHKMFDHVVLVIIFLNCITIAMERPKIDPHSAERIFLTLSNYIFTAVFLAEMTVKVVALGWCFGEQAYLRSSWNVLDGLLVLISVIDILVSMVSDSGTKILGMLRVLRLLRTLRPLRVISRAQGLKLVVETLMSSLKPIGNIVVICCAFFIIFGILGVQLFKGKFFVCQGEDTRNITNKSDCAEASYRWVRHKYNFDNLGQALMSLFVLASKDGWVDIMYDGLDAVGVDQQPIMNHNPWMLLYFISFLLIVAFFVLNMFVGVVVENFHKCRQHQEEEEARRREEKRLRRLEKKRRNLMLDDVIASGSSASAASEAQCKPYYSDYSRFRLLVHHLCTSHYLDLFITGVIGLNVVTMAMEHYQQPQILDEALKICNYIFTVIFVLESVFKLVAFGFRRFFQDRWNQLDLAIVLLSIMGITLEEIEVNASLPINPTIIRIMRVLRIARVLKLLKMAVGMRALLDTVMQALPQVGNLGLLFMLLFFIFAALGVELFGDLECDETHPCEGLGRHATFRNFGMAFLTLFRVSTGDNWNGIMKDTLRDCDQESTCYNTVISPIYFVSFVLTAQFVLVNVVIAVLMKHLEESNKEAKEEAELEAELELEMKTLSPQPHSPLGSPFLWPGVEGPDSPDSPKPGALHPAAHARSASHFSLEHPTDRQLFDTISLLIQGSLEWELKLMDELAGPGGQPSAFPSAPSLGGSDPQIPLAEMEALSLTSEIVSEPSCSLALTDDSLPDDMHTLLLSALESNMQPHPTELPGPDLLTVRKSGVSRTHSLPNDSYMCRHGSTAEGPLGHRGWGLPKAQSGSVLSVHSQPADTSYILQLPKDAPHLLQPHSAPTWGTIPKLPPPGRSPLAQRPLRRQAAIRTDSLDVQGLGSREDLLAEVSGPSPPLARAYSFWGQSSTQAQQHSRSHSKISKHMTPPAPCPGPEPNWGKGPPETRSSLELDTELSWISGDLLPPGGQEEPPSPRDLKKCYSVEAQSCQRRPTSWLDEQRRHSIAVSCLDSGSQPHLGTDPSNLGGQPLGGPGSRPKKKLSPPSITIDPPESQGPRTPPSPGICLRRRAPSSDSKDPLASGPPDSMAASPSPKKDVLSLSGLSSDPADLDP
# T1 sequence (O95180 whole entry): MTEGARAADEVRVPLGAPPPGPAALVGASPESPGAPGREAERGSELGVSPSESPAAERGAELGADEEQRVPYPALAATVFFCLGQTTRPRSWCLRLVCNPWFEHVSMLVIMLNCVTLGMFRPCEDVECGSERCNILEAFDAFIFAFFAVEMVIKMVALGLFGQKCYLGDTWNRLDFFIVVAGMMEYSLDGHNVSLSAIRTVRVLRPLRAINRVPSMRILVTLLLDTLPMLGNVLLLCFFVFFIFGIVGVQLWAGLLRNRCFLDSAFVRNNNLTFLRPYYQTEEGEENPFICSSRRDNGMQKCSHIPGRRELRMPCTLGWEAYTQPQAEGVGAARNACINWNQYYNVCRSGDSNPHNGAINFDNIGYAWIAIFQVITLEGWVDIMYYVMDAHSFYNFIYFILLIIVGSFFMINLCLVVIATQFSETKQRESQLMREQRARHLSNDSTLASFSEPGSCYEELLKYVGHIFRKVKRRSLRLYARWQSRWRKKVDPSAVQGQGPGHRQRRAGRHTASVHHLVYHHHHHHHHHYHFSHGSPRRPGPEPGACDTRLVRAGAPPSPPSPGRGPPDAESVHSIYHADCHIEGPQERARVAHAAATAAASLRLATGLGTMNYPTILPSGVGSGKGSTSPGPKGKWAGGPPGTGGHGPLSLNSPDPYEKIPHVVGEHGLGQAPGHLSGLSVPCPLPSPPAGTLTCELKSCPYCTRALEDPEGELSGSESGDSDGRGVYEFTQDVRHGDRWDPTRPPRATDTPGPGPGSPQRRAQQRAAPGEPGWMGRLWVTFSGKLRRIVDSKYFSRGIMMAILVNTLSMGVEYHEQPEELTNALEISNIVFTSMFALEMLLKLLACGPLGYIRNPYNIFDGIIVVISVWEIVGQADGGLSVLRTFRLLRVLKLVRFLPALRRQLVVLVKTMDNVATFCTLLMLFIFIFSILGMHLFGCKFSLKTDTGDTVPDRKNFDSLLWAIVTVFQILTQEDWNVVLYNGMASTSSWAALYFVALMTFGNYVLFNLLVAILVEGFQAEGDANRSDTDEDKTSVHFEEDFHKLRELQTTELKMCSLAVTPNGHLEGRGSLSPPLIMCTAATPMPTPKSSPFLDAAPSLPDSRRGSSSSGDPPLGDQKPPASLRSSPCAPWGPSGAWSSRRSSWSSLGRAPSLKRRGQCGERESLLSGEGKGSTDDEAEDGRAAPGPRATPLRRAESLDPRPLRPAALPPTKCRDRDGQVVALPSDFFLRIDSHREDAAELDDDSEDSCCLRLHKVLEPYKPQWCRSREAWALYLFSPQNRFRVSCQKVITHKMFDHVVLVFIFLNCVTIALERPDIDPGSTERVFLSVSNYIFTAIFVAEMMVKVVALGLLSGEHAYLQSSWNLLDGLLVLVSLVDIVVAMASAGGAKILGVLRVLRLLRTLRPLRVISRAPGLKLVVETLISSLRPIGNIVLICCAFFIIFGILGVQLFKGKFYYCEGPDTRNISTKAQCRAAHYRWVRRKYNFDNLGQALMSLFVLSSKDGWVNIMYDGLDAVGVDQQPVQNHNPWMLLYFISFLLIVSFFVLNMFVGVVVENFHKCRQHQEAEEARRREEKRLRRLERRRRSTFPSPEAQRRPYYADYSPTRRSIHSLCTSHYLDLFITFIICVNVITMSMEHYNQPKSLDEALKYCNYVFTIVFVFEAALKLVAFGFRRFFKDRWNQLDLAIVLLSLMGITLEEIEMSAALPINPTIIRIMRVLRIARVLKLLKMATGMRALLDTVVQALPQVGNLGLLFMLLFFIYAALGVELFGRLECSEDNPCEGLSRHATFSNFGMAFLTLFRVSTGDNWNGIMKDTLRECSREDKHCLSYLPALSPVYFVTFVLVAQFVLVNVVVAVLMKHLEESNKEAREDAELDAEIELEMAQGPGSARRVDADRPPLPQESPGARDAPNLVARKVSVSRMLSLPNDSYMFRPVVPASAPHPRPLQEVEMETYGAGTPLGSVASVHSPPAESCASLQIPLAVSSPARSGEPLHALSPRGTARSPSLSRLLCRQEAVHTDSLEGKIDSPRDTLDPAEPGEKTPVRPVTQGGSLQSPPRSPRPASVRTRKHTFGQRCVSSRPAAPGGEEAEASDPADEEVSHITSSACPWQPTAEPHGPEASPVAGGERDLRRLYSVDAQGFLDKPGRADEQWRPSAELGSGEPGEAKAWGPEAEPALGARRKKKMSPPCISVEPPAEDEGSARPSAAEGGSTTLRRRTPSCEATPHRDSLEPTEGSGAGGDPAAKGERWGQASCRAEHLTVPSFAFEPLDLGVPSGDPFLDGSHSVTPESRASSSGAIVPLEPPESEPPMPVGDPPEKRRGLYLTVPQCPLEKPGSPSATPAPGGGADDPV
compound,measurement,setting,value
NC1(CC(=O)N2CCC(NC(=O)Nc3cc(C(F)(F)F)cc(C(F)(F)F)c3)CC2)CCCCC1 [Compound 75],Rat SNL tactile allodynia (% antiallodynia),[1]; 1 hr,5%
same,Rat SNL tactile allodynia (% antiallodynia),[1]; 2 hr,3%
same,Rat SNL tactile allodynia (% antiallodynia),[1]; 4 hr,3%
"NC1(CC(=O)N2CCC(O)(CC(=O)Nc3cc(C(F)(F)F)cc(C(F)(F)F)c3)CC2)CCCCC1 [Compound 54, 2-(1-(2-(1-aminocyclohexyl)acetyl)-4-hydroxypiperidin-4-yl)-N-(3,5-bis(trifluoromethyl)phenyl)acetamide]",Epilepsy 6 Hz (% Protected),[2]; 0.25 hr,25%
same,Epilepsy 6 Hz (% Protected),[2]; 0.5 hr,75%
same,Epilepsy 6 Hz (% Protected),[2]; 1 hr,75%
same,Epilepsy 6 Hz (% Protected),[2]; 2 hr,75%
same,Epilepsy 6 Hz (% Protected),[2]; 4 hr,100%
same,Rat SNL tactile allodynia (% antiallodynia),[1]; 1 hr,41%
same,Rat SNL tactile allodynia (% antiallodynia),[1]; 2 hr,39%
same,Rat SNL tactile allodynia (% antiallodynia),[1]; 4 hr,45%
same,pIC50,[3],7.10
"O=C(CC1CCN(C(=O)C2CNCCO2)CC1)Nc1cc(C(F)(F)F)cc(C(F)(F)F)c1 (stereo not shown) [Compound 4, N-(3,5-bis(trifluoromethyl)phenyl)-2-(1-(morpholine-2-carbonyl)piperidin-4-yl)acetamide]",Rotarod Assay (% impaired),[4]; 0.25 hr,25%
same,Rotarod Assay (% impaired),[4]; 0.5 hr,0%
same,Rotarod Assay (% impaired),[4]; 1 hr,75%
same,Rotarod Assay (% impaired),[4]; 2 hr,75%
same,Rotarod Assay (% impaired),[4]; 4 hr,75%
same,pIC50,[5],< 5.00
same,pIC50,[3],5.66
"NCC1(CC(=O)O)CCCCC1 [Gabapentin, gabapentin, reference compound]",% Antiallodynia (Mean ± SD),[1]; 1 h,73 ± 35 %
same,% Antiallodynia (Mean ± SD),[1]; 2 h,90 ± 18 %
same,% Antiallodynia (Mean ± SD),[1]; 4 h,15 ± 8%
same,anti-allodynia performance compared with first study,[1]; second repetition of the study,performed similarly
O=C(CC1CCN(C(=O)[C@H]2CCCCN2)CC1)Nc1cc(C(F)(F)F)cc(C(F)(F)F)c1 [Compound 74],% Spike Change Mean,[6],−53%
"CC(C)(CN)C(=O)N1CCC(CC(=O)Nc2cc(C(F)(F)F)cc(C(F)(F)F)c2)CC1 [Compound 45, 2-(1-(3-amino-2,2-dimethylpropanoyl)piperidin-4-yl)-N-(3,5-bis(trifluoromethyl)phenyl)acetamide]",pIC50,[5],< 5.00
same,pIC50,[3],6.27
"NC1(CC(=O)N2CCC(CC(=O)Nc3cc(C(F)(F)F)cc(C(F)(F)F)c3)CC2)CCCCC1 [Compound 8, 2-(1-(2-(1-aminocyclohexyl)acetyl)piperidin-4-yl)-N-(3,5-bis(trifluoromethyl)phenyl)acetamide]",Epilepsy 6 Hz (% Protected),[2]; 0.25 hr,75%
same,Epilepsy 6 Hz (% Protected),[2]; 0.5 hr,75%
same,Epilepsy 6 Hz (% Protected),[2]; 1 hr,67%
same,Epilepsy 6 Hz (% Protected),[2]; 2 hr,100%
same,Rotarod Assay (% impaired),[4]; 0.25 hr,0%
same,Rotarod Assay (% impaired),[4]; 0.5 hr,50%
same,Rotarod Assay (% impaired),[4]; 1 hr,75%
same,Rotarod Assay (% impaired),[4]; 2 hr,100%
same,Rotarod Assay (% impaired),[4]; 4 hr,100%
same,pIC50,[5],< 5.00
same,pIC50,[3],6.96
